Assay results taken from PubChem BioAssay (NCI).
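Exposure lasted 48 hours, with cells grown in 96-well plates and compounds tested at five concentrations. TGI marks complete inhibition of growth.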

How the values were obtained:
Assay in all cases: inhibition of tumour cell growth, NCI panel, 48 h
SNB-75 CNS = system: SNB-75 CNS
UO-31 renal = system: UO-31 renal
DU-145 prostate = system: DU-145 prostate
K-562 leukemia = system: K-562 leukemia
HOP-62 NSCLC = system: HOP-62 NSCLC
786-0 renal = system: 786-0 renal
M14 melanoma = system: M14 melanoma
ACHN renal = system: ACHN renal
MALME-3M melanoma = system: MALME-3M melanoma
BT-549 breast = system: BT-549 breast
HCT-116 colon = system: HCT-116 colon
SF-268 CNS = system: SF-268 CNS
IGROV1 ovarian = system: IGROV1 ovarian
NCI-H23 lung = system: NCI-H23 lung
CCRF-CEM leukemia = system: CCRF-CEM leukemia
SN12C renal = system: SN12C renal
T-47D breast = system: T-47D breast
OVCAR-4 ovarian = system: OVCAR-4 ovarian
LOX IMVI melanoma = system: LOX IMVI melanoma
HT29 colon = system: HT29 colon
MDA-N = system: MDA-N
SF-295 CNS = system: SF-295 CNS
HL-60(TB) leukemia = system: HL-60(TB) leukemia
OVCAR-8 ovarian = system: OVCAR-8 ovarian
RPMI-8226 leukemia = system: RPMI-8226 leukemia
EKVX NSCLC = system: EKVX NSCLC
SK-OV-3 ovarian = system: SK-OV-3 ovarian
NCI/ADR-RES ovarian = system: NCI/ADR-RES ovarian
SK-MEL-28 melanoma = system: SK-MEL-28 melanoma
A498 renal = system: A498 renal
CAKI-1 renal = system: CAKI-1 renal
NCI-H522 lung = system: NCI-H522 lung
OVCAR-3 ovarian = system: OVCAR-3 ovarian
A549 NSCLC = system: A549 NSCLC
KM12 colon = system: KM12 colon
SF-539 CNS = system: SF-539 CNS
SNB-19 CNS = system: SNB-19 CNS
SK-MEL-5 melanoma = system: SK-MEL-5 melanoma
OVCAR-5 ovarian = system: OVCAR-5 ovarian
MCF7 breast = system: MCF7 breast
MDA-MB-435 = system: MDA-MB-435
U251 CNS = system: U251 CNS
HS 578T breast = system: HS 578T breast
SW-620 colon = system: SW-620 colon
SK-MEL-2 melanoma = system: SK-MEL-2 melanoma
HCT-15 colon = system: HCT-15 colon
RXF 393 renal = system: RXF 393 renal
HOP-92 NSCLC = system: HOP-92 NSCLC
SR leukemia = system: SR leukemia
COLO 205 colon = system: COLO 205 colon
MOLT-4 leukemia = system: MOLT-4 leukemia
NCI-H460 lung = system: NCI-H460 lung
MDA-MB-231 breast = system: MDA-MB-231 breast
TK-10 renal = system: TK-10 renal
UACC-257 melanoma = system: UACC-257 melanoma
PC-3 prostate = system: PC-3 prostate
UACC-62 melanoma = system: UACC-62 melanoma
NCI-H226 lung = system: NCI-H226 lung

Measured: TGI

CSc1c(CC(=O)O)n(Cc2ccccc2)c2ccccc12
> 100 µM: SNB-75 CNS | UO-31 renal | DU-145 prostate | K-562 leukemia | HOP-62 NSCLC | 786-0 renal | M14 melanoma | ACHN renal | MALME-3M melanoma | BT-549 breast | HCT-116 colon | SF-268 CNS | IGROV1 ovarian | NCI-H23 lung | CCRF-CEM leukemia | SN12C renal | T-47D breast | OVCAR-4 ovarian | LOX IMVI melanoma | HT29 colon | MDA-N | SF-295 CNS | HL-60(TB) leukemia | OVCAR-8 ovarian | RPMI-8226 leukemia | EKVX NSCLC | SK-OV-3 ovarian | NCI/ADR-RES ovarian | SK-MEL-28 melanoma | A498 renal | CAKI-1 renal | NCI-H522 lung | OVCAR-3 ovarian | A549 NSCLC | KM12 colon | SF-539 CNS | SNB-19 CNS | SK-MEL-5 melanoma | OVCAR-5 ovarian | MCF7 breast | MDA-MB-435 | U251 CNS | HS 578T breast | SW-620 colon | SK-MEL-2 melanoma | HCT-15 colon | RXF 393 renal | HOP-92 NSCLC | SR leukemia | COLO 205 colon | MOLT-4 leukemia | NCI-H460 lung | MDA-MB-231 breast | TK-10 renal | UACC-257 melanoma | PC-3 prostate | UACC-62 melanoma

CC1(C)CC(=O)C(C(c2cccc(O)c2O)C2C(=O)CC(C)(C)CC2=O)C(=O)C1
> 100 µM: SNB-75 CNS | DU-145 prostate | K-562 leukemia | HOP-62 NSCLC | 786-0 renal | M14 melanoma | ACHN renal | MALME-3M melanoma | NCI-H226 lung | BT-549 breast | HCT-116 colon | SF-268 CNS | IGROV1 ovarian | NCI-H23 lung | CCRF-CEM leukemia | SN12C renal | T-47D breast | OVCAR-4 ovarian | LOX IMVI melanoma | HT29 colon | MDA-N | SF-295 CNS | HL-60(TB) leukemia | OVCAR-8 ovarian | RPMI-8226 leukemia | EKVX NSCLC | SK-OV-3 ovarian | NCI/ADR-RES ovarian | SK-MEL-28 melanoma | A498 renal | CAKI-1 renal | NCI-H522 lung | OVCAR-3 ovarian | A549 NSCLC | KM12 colon | SF-539 CNS | SNB-19 CNS | SK-MEL-5 melanoma | OVCAR-5 ovarian | MCF7 breast | MDA-MB-435 | U251 CNS | HS 578T breast | SW-620 colon | SK-MEL-2 melanoma | HCT-15 colon | RXF 393 renal | HOP-92 NSCLC | SR leukemia | COLO 205 colon | MOLT-4 leukemia | NCI-H460 lung | MDA-MB-231 breast | TK-10 renal | UACC-257 melanoma | PC-3 prostate | UACC-62 melanoma
